Measured values taken from a flash point compilation (Sun et al. 2020).

Q: With `CC(O)COC(C)(C)C` (stereo not drawn) [1-[(2-methylpropan-2-yl)oxy]propan-2-ol] as the compound, how does the flash point read?
A: 44.00 °C

Q: With `CC(O)CN(CC(C)O)CC(C)O` (stereo not drawn) [1-[bis(2-hydroxypropyl)amino]propan-2-ol] as the compound, how does the flash point read?
A: 160.00 °C

Q: For `O=P(N1CC1)(N1CC1)N1CC1` [1-[bis(aziridin-1-yl)phosphoryl]aziridine], which flash point is on record?
A: 163.00 °C

Q: For `CCCCOP(=O)(CCCC)OCCCC` [1-[butoxy(butyl)phosphoryl]oxybutane], which flash point is on record?
A: 154.00 °C

Q: Which flash point does the source give for `CC(O)CN` (stereo not drawn) [1-aminopropan-2-ol] here?
A: 77.00 °C

Q: With `Cc1ccccc1Br` [1-bromo-2-methylbenzene] as the compound, how does the flash point read?
A: 79.00 °C

Q: With `Cc1ccc(Br)cc1` [1-bromo-4-methylbenzene] as the compound, how does the flash point read?
A: 85.00 °C

Q: Which flash point does the source give for `Brc1ccc(-c2ccccc2)cc1` [1-bromo-4-phenylbenzene] here?
A: 143.00 °C

Q: Which flash point does the source give for `CC(O)CBr` (stereo not drawn) [1-bromopropan-2-ol] here?
A: 54.00 °C

Q: With `CC(CCl)OC(C)CCl` (stereo not drawn) [1-chloro-2-(1-chloropropan-2-yloxy)propane] as the compound, how does the flash point read?
A: 85.00 °C

Q: For `ClCCOCCCl` [1-chloro-2-(2-chloroethoxy)ethane], which flash point is on record?
A: 55.00 °C

Q: For `ClCCOCOCCCl` [1-chloro-2-(2-chloroethoxymethoxy)ethane], which flash point is on record?
A: 110.00 °C

Q: With `C=COCCCl` [1-chloro-2-ethenoxyethane] as the compound, how does the flash point read?
A: 16.00 °C

Q: For `Cc1ccccc1Cl` [1-chloro-2-methylbenzene], which flash point is on record?
A: 52.00 °C

Q: With `CC(C)=CCl` [1-chloro-2-methylprop-1-ene] as the compound, how does the flash point read?
A: -1.00 °C

Q: Which flash point does the source give for `O=[N+]([O-])c1ccccc1Cl` [1-chloro-2-nitrobenzene] here?
A: 127.00 °C

Q: For `FC(F)(F)c1cccc(Cl)c1` [1-chloro-3-(trifluoromethyl)benzene], which flash point is on record?
A: 47.00 °C

Q: With `Cc1cccc(Cl)c1` [1-chloro-3-methylbenzene] as the compound, how does the flash point read?
A: 52.00 °C

Q: For `O=[N+]([O-])c1cccc(Cl)c1` [1-chloro-3-nitrobenzene], which flash point is on record?
A: 127.00 °C

Q: Which flash point does the source give for `FC(F)(F)c1ccc(Cl)cc1` [1-chloro-4-(trifluoromethyl)benzene] here?
A: 47.00 °C

Q: Which flash point does the source give for `CCC(C(c1ccc(Cl)cc1)c1ccc(Cl)cc1)[N+](=O)[O-]` (stereo not drawn) [1-chloro-4-[1-(4-chlorophenyl)-2-nitrobutyl]benzene] here?
A: 150.00 °C

Q: For `O=C=Nc1ccc(Cl)cc1` [1-chloro-4-isocyanatobenzene], which flash point is on record?
A: 110.00 °C

Q: With `O=[N+]([O-])c1ccc(Cl)cc1` [1-chloro-4-nitrobenzene] as the compound, how does the flash point read?
A: 110.00 °C

Q: Which flash point does the source give for `CCCCCCCCCCCCCl` [1-chlorododecane] here?
A: 113.00 °C

Q: For `Clc1cccc2ccccc12` [1-chloronaphthalene], which flash point is on record?
A: 121.00 °C

Q: Which flash point does the source give for `C1=CC(c2ccc(C3CC=CCC3)cc2)CCC1` (stereo not drawn) [1-cyclohex-2-en-1-yl-4-cyclohex-3-en-1-ylbenzene] here?
A: 157.00 °C

Q: For `C=COCC(C)C` [1-ethenoxy-2-methylpropane], which flash point is on record?
A: -9.00 °C

Q: With `C=Cc1ccccc1C` [1-ethenyl-2-methylbenzene] as the compound, how does the flash point read?
A: 60.00 °C

Q: Which flash point does the source give for `C=CN1CCCC1=O` [1-ethenylpyrrolidin-2-one] here?
A: 93.00 °C

Q: Which flash point does the source give for `Cc1cccc(F)c1` [1-fluoro-3-methylbenzene] here?
A: 9.00 °C

Q: With `Cc1ccc(F)cc1` [1-fluoro-4-methylbenzene] as the compound, how does the flash point read?
A: 41.00 °C

Q: Which flash point does the source give for `CC(C)c1cc(OO)cc(C(C)C)c1` [1-hydroperoxy-3,5-di(propan-2-yl)benzene] here?
A: 79.00 °C

Q: For `COCCOCCOC` [1-methoxy-2-(2-methoxyethoxy)ethane], which flash point is on record?
A: 67.00 °C

Q: Which flash point does the source give for `COc1ccccc1[N+](=O)[O-]` [1-methoxy-2-nitrobenzene] here?
A: 142.00 °C

Q: For `C/C=C/c1ccc(OC)cc1` [1-methoxy-4-[(E)-prop-1-enyl]benzene], which flash point is on record?
A: 91.00 °C

Q: Which flash point does the source give for `C=CCc1ccc(OC)cc1` [1-methoxy-4-prop-2-enylbenzene] here?
A: 81.00 °C

Q: For `COCC(C)OC(C)=O` (stereo not drawn) [1-methoxypropan-2-yl acetate], which flash point is on record?
A: 46.00 °C

Q: Which flash point does the source give for `Cc1ccccc1[N+](=O)[O-]` [1-methyl-2-nitrobenzene] here?
A: 106.00 °C

Q: For `Cc1cccc([N+](=O)[O-])c1` [1-methyl-3-nitrobenzene], which flash point is on record?
A: 106.00 °C

Q: For `O=[N+]([O-])c1ccccc1C(F)(F)F` [1-nitro-2-(trifluoromethyl)benzene], which flash point is on record?
A: 96.00 °C

Q: For `O=[N+]([O-])c1ccc(-c2ccccc2)cc1` [1-nitro-4-phenylbenzene], which flash point is on record?
A: 143.00 °C

Q: Which flash point does the source give for `O=[N+]([O-])c1cccc2ccccc12` [1-nitronaphthalene] here?
A: 164.00 °C

Q: For `CCC[N+](=O)[O-]` [1-nitropropane], which flash point is on record?
A: 34.00 °C

Q: With `O=NN1CCCC1` [1-nitrosopyrrolidine] as the compound, how does the flash point read?
A: 83.00 °C

Q: For `CCCCCSCCCCC` [1-pentylsulfanylpentane], which flash point is on record?
A: 85.00 °C

Q: With `CC(=O)c1ccccc1` [1-phenylethanone] as the compound, how does the flash point read?
A: 82.00 °C

Q: For `CCCOCC(C)O` (stereo not drawn) [1-propoxypropan-2-ol], which flash point is on record?
A: 48.00 °C

Q: For `c1nc[nH]n1` [1H-1,2,4-triazole], which flash point is on record?
A: 170.00 °C

Q: With `C1=Cc2ccccc2C1` [1H-indene] as the compound, how does the flash point read?
A: 78.00 °C

Q: For `O=CC(Cl)(Cl)Cl` [2,2,2-trichloroacetaldehyde], which flash point is on record?
A: 75.00 °C

Q: With `CC1=CC(C)(C)Nc2ccccc21` [2,2,4-trimethyl-1H-quinoline] as the compound, how does the flash point read?
A: 101.00 °C

Q: For `CC(C)CC(C)(C)C` [2,2,4-trimethylpentane], which flash point is on record?
A: -12.00 °C

Q: With `CC(C)CCC(C)(C)C` [2,2,5-trimethylhexane] as the compound, how does the flash point read?
A: 31.00 °C

Q: Which flash point does the source give for `OCC(CO)(CO)CO` [2,2-bis(hydroxymethyl)propane-1,3-diol] here?
A: 240.00 °C

Q: With `O=C(O)C(Br)Br` [2,2-dibromoacetic acid] as the compound, how does the flash point read?
A: 113.00 °C

Q: With `COC(F)(F)C(Cl)Cl` [2,2-dichloro-1,1-difluoro-1-methoxyethane] as the compound, how does the flash point read?
A: 63.00 °C

Q: Which flash point does the source give for `CC(C)(C)CO` [2,2-dimethylpropan-1-ol] here?
A: 37.00 °C

Q: Which flash point does the source give for `CC(C)(C)C(=O)O` [2,2-dimethylpropanoic acid] here?
A: 64.00 °C

Q: For `C=C(Cl)C(Cl)CCl` (stereo not drawn) [2,3,4-trichlorobut-1-ene], which flash point is on record?
A: 63.00 °C

Q: With `Oc1ccc(Cl)c(Cl)c1Cl` [2,3,4-trichlorophenol] as the compound, how does the flash point read?
A: 62.00 °C

Q: With `Oc1c(Cl)ccc(Cl)c1Cl` [2,3,6-trichlorophenol] as the compound, how does the flash point read?
A: 79.00 °C

Q: Which flash point does the source give for `O=C(O)C(O)C(O)C(=O)O` (stereo not drawn) [2,3-dihydroxybutanedioic acid] here?
A: 210.00 °C

Q: With `Cc1cccc(N)c1C` [2,3-dimethylaniline] as the compound, how does the flash point read?
A: 97.00 °C

Q: For `CC(C)=CC(C)(C)C` [2,4,4-trimethylpent-2-ene], which flash point is on record?
A: 2.00 °C

Q: For `CC(C)(C)CC(C)(C)S` [2,4,4-trimethylpentane-2-thiol], which flash point is on record?
A: 46.00 °C

Q: With `Oc1cc(Cl)c(Cl)cc1Cl` [2,4,5-trichlorophenol] as the compound, how does the flash point read?
A: 133.00 °C

Q: With `CC1OC(C)OC(C)OC(C)O1` (stereo not drawn) [2,4,6,8-tetramethyl-1,3,5,7-tetraoxocane] as the compound, how does the flash point read?
A: 36.00 °C

Q: For `Oc1c(Cl)cc(Cl)cc1Cl` [2,4,6-trichlorophenol], which flash point is on record?
A: 99.00 °C
